Consider one compound from US11324728B2, “Dosing regimens for the treatment of fungal infections” (Seren Pharmaceuticals Inc., priority 2017, dated 2022).

Each structure is given as a SMILES string.

A short description of this series: Pharmacokinetics: toenail and plasma ravuconazole concentrations. It is filed as in vivo, human. On the procedure: A Phase II clinical pharmacology study was conducted in subjects with onychomycosis of the toenail. The study investigated the pharmacokinetics, efficacy and safety of three different dosing regimens of fosravuconazole. […] The three treatment groups were as follows: • a.

Where [1] appears, read: fosravuconazole 100 mg (once daily dose) group.
[2] abbreviates: fosravuconazole 400 mg (pulse treatment) group.

For `C[C@@H](c1nc(-c2ccc(C#N)cc2)cs1)[C@](O)(Cn1cncn1)c1ccc(F)cc1F` [ravuconazole, 4-[2-[(2R,3R)-3-(2,4-difluorophenyl)-3-hydroxy-4-(1,2,4-triazol-1-yl)butan-2-yl]-1,3-thiazol-4-yl]benzonitrile], under setting [1], the “time toenail ravuconazole concentrations maintained at MIC90 or higher, longer than in 400 mg (pulse treatment) group” value is on record as “about 4 weeks”; the “toenail ravuconazole concentrations versus MIC90, arithmetic mean” value was “exceeded MIC90 in arithmetic mean at Week 8 and maintained at MIC90 or higher until Week 28”; the “toenail ravuconazole concentrations versus MIC90, geometric mean” value is “exceeded MIC90 at Week 12 after the study treatment initiation and maintained at MIC90 or higher until Week 24”. Under “fosravuconazole 100 mg (once daily dose) group, Week 20 and onwards”, the “toenail ravuconazole concentrations compared with 400 mg (pulse treatment) group” value is “fluctuated at higher levels”. Further, the “toenail ravuconazole concentrations, arithmetic mean and geometric mean” value (fosravuconazole 200 mg (pulse treatment) group) is listed as not above 60 ng/mL. Further, under setting [2], the “toenail ravuconazole concentrations versus MIC90, arithmetic mean” value is “exceeded MIC90 in arithmetic mean at Week 8 after the study treatment initiation and maintained at MIC90 or higher until Week 24”; the “toenail ravuconazole concentrations versus MIC90, geometric mean” value was “exceeded MIC90 at Week 12 after the study treatment initiation and maintained at MIC90 or higher until Week 24”.
